Results taken from PMC6216040, “Repurposing of an old drug: In vitro and in vivo efficacies of buparvaquone against Echinococcus multilocularis” (International Journal for Parasitology: Drugs and Drug …, 2018).
Where two headings read alike, the source gives them in different places.

Tested on: E. multilocularis metacestodes
Assay: PGI-assay: drug-induced damage on in vitro cultured metacestodes (Pathogen Box screening cascade and EC50)
Format: cell-based, Echinococcus multilocularis
Conditions: for PGI release, % of the Tx-100 control, 5d / PGI release, % of the Tx-100 control, 12d / cytotoxicity at 10 µM: 10 µM, singlets; for cytotoxicity at 10 µM: Echinococcus multilocularis; for PGI release, % of Tx-100 control, average, 5d / PGI release, % of Tx-100 control, average, 12d: confirmatory screening at 10 µM in triplicates, values as % of Tx-100 control
[1] = 120 h, 5 days of incubation, read-out: PGI release, % of the Tx-100 control, 5d
[2] = 288 h, 12 days of incubation, read-out: PGI release, % of the Tx-100 control, 12d

| SMILES | PGI release, % of the Tx-100 control, 5d (5 days of incubation) [%] | PGI release, % of the Tx-100 control, 12d (12 days of incubation) [%] | cytotoxicity at 10 µM [1] [%] | cytotoxicity at 10 µM [2] [%] | PGI release, % of Tx-100 control, average, 5d (5 days of incubation) [%] | PGI release, % of Tx-100 control, average, 12d (12 days of incubation) [%] |
| --- | --- | --- | --- | --- | --- | --- |
| CN1CCN(S(=O)(=O)c2ccc(-c3ccc4c(Nc5ccc6n[nH]nc6c5)ccnc4c3)cc2)CC1 [MMV687246] | -0.71 | -0.69 | – | – | – | – |
| CC(=O)NC[C@H]1CN(c2ccc(N3CCSCC3)c(F)c2)C(=O)O1 [MMV688756, Sutezolid, reference compound] | – | – | -3.45 | -0.37 | – | – |
| CN(C)c1cc(NC(=O)Nc2ccccc2)c2ccccc2n1 [MMV006901] | 13.97 | 19.56 | – | – | – | – |
| COc1ccc2nc(C)cc(OCC(=O)NCc3ccccc3)c2c1 [MMV687189] | -4.79 | 3.07 | – | – | – | – |
| Cc1cc(NCC(C)C)c2[nH]nc(-c3ccccc3)c2n1 [MMV021375] | -3.66 | 7.43 | – | – | – | – |
| Cc1ccc(-c2nc(CN(Cc3ccccn3)C(C)C)cs2)o1 [MMV1088520] | -5.44 | -2.75 | – | – | – | – |
| CCc1cc(=O)n(C)c(SC(C)C(=O)Nc2ccc(F)cc2)n1 (stereo not shown) [MMV688980] | -0.26 | 0.88 | – | – | – | – |
| COc1ccc(C2=NN(C3CCCCCC3)C(=O)[C@@H]3CC=CC[C@H]23)cc1OCCCCOc1ccc(-c2nn[nH]n2)cc1 [MMV690027] | 9.58 | 27.83 | – | – | 0.20 | 0.24 |
| Nc1ccc(C(=O)Nc2ccc(-c3nc4ccccc4o3)cc2)cc1 [MMV007920] | 0.08 | -0.69 | – | – | – | – |
| O=C(c1ccco1)N(CCCn1ccnc1)c1nc2c(Cl)cccc2s1 [MMV688936] | -2.60 | 13.45 | – | – | – | – |
| CC(C)(C)c1cnc(NC(=O)c2ccccc2O)s1 [MMV495543] | -1.40 | -5.38 | – | – | – | – |
| CNC(=O)C1Cc2ccccc2N1C(=O)Cc1ccc(F)cc1 (stereo not shown) [MMV188296] | -0.45 | -0.28 | – | – | – | – |
| CC1=NN(c2nc3ccccc3s2)C(=O)C1Cc1cccc2ccccc12 (stereo not shown) [MMV676558] | 13.65 | 78.65 | – | – | -0.26 | 0.35 |
| O=C1N(Cc2cc3ccccc3s2)CC2CN(Cc3ccccc3)CCN12 (stereo not shown) [MMV084603] | -3.64 | 0.62 | – | – | – | – |
| COCC(C)NC(=O)CSc1ncnc2sc(-c3ccccc3)cc12 (stereo not shown) [MMV676536] | 3.74 | 50.91 | – | – | 0.53 | 0.42 |
| Nc1nc2cc(-c3cncc(Oc4ccc(F)cc4)c3)ccc2[nH]1 [MMV687248] | 2.44 | 3.04 | – | – | – | – |
| O=C(Nc1n[nH]c(=S)s1)c1cc(Br)ccc1Cl [MMV676492] | 5.74 | 1.03 | – | – | – | – |
| COc1ccc(S(=O)(=O)Nc2ccc(CN3CCN(C(=O)c4cccc(C#N)c4)CC3)cc2)cc1 [MMV689029] | 2.51 | -2.23 | – | – | – | – |
| CCOc1ccccc1NC(C)C(=O)Nc1cc(C(F)(F)F)ccc1N1CCOCC1 (stereo not shown) [MMV407834] | -0.40 | -0.68 | – | – | – | – |
| Cn1ncc2c(N3CCOCC3)nc(NCCc3c[nH]c4ccccc34)nc21 [MMV676382] | 0.80 | -0.14 | – | – | – | – |
| Nc1ncc(Br)cc1-c1nc2cc(Cl)cnc2[nH]1 [MMV676358] | 0.16 | -0.55 | – | – | – | – |
| CC(C)C(Oc1cccc2ccccc12)C(=O)O (stereo not shown) [MMV676191] | -0.44 | -4.34 | – | – | – | – |
| CCOc1ccccc1C(=O)Nc1cccc(-c2nc3ncccn3c2C)c1 [MMV019790] | -1.05 | 53.36 | – | – | -1.68 | -2.24 |
| CC[C@@H](CO)NCCN[C@@H](CC)CO [MMV687801, Ethambutol, reference compound] | – | – | -0.84 | 0.29 | – | – |
| Cc1ccc(Oc2ccc(NC(=O)CNc3ccccc3N3CCCC3=O)cc2)cc1 [MMV020512] | 0.61 | 1.80 | – | – | – | – |
| Cc1ccccc1C(=O)N1NC(=Nc2ccccc2)SC1(C)C [MMV688771] | -0.49 | -1.69 | – | – | – | – |

| SMILES | PGI release, % of the Tx-100 control, 5d (5 days of incubation) [%] | PGI release, % of the Tx-100 control, 12d (12 days of incubation) [%] | cytotoxicity at 10 µM [1] [%] | cytotoxicity at 10 µM [2] [%] | PGI release, % of Tx-100 control, average, 5d (5 days of incubation) [%] | PGI release, % of Tx-100 control, average, 12d (12 days of incubation) [%] |
| --- | --- | --- | --- | --- | --- | --- |
| CNC(=O)c1nn(C)c2c1C(C)(C)Cc1cnc(Nc3ccc(N4CCN(C)CC4)cc3)nc1-2 [MMV676602] | -1.52 | 120.02 | – | – | 0.52 | 12.12 |
| CC(C)(C)OC(=O)N1CCN(c2cc(-c3ccc(Oc4ccccc4)cc3)n[nH]2)CC1 [MMV676057] | -3.83 | 2.21 | – | – | – | – |
| O=C(NCc1ccoc1)N1CCN(Cc2ccc3c(c2)OCO3)CC1 [MMV688553] | 0.80 | -2.91 | – | – | – | – |
| O=C1O[C@@H](COc2ccon2)CN1c1cc(F)c(C2=CCN(Cc3ccccc3)CC2)c(F)c1 [MMV687813] | -0.66 | -1.17 | – | – | – | – |
| NC(=O)c1cc(Br)ccc1OCCOc1ccccc1 [MMV687243] | 1.02 | -1.47 | – | – | – | – |
| Cc1ccc2oc(-c3cc(NC(=O)Cc4ccccc4)ccc3Cl)nc2c1 [MMV676509] | -0.17 | 0.19 | – | – | – | – |
| O=C(OCc1ccccc1)N1CCC(c2cc(-c3ccncc3)c(-c3ccc(F)cc3)[nH]2)CC1 [MMV688509] | 0.97 | 2.28 | – | – | – | – |
| CO[C@@H]1CN(c2ccc(C#CC3(O)CN4CCC3CC4)c(Cc3ccccc3)n2)C[C@H]1O (stereo partly shown) [MMV688415] | 3.28 | -0.74 | – | – | – | – |
| CC(C)(C)n1nc(Cc2ccc(F)c(Cl)c2)c2c(N)ncnc21 [MMV688852] | 6.41 | 7.25 | – | – | – | – |
| COc1ccc(OC(C)C(=O)Nc2ccc(Cl)cc2C)cc1 (stereo not shown) [MMV202458] | 0.0146 | 6.22 | – | – | – | – |
| CC1COC(Cn2cncn2)(c2ccc(Oc3ccc(Cl)cc3)cc2Cl)O1 (stereo not shown) [MMV688943, Difenoconazol] | -4.96 | -0.86 | – | – | – | – |
| Cc1noc(C)c1C(=O)N1CCCC(c2[nH]c3c(C)cccc3c2-c2ccncc2)C1 (stereo not shown) [MMV020623] | -0.37 | -4.10 | – | – | – | – |
| CC(c1cc(Cl)cc(Cl)c1)N(C)c1ncc2c(N)nc(N)nc2n1 (stereo not shown) [MMV689437] | 4.64 | 4.83 | – | – | – | – |
| CCN(CC)S(=O)(=O)c1ccc(Cl)c(C(=O)Nc2ccc3nc(C)sc3c2)c1 [MMV019721] | -0.43 | -1.86 | – | – | – | – |
| Brc1cncc(-c2cc(NCCCn3ccnc3)nc(-c3ccccc3)n2)c1 [MMV661713] | -3.38 | -0.86 | – | – | – | – |
| NCC(=O)N1CCn2c(nc(-c3ccccc3)c2Nc2ccc3c(c2)OCO3)C1 [MMV011691] | 1.25 | 2.05 | – | – | – | – |
| O=C(NC1CC1)c1ccc(N2CCC(Cc3ccccc3)CC2)nc1 [MMV024397] | 0.75 | 37.30 | – | – | 0.18 | -0.13 |
| CNC(=O)c1cc(S(=O)(=O)N2CCN(c3ccccn3)CC2)cs1 [MMV020136] | -0.32 | 0.25 | – | – | – | – |
| COc1ccc(C2CC(c3cccs3)=NN2C(=O)c2ccco2)cc1OC (stereo not shown) [MMV019234] | 0.82 | 6.10 | – | – | – | – |
| c1ccc(Oc2ccc(-c3cc(C4CCOCC4)[nH]n3)cc2)cc1 [MMV687762] | -1.81 | 0.46 | – | – | – | – |
| CCc1c(C)nc(-n2nc(C)cc2NC(=O)c2ccccc2SC)[nH]c1=O [MMV676477] | -3.90 | 30.66 | – | – | -0.18 | 2.18 |
| Clc1cccc(C(c2ccc(CN3CCNCC3)cc2)n2ccnc2)c1 (stereo not shown) [MMV663250] | 0.31 | -0.31 | – | – | – | – |
| CNc1snc(C)c1C(=O)NCCOc1ccc(OC)cc1 [MMV688554] | -1.97 | 1.18 | – | – | – | – |
| O=C(N[C@H](Cc1ccccc1)C(=O)Nc1ccccc1N1CCOCC1)c1cccs1 [MMV688845] | 0.55 | 0.28 | – | – | – | – |
| NC(CC(=O)c1ccc(Cl)cc1Cl)C(Cl)(Cl)Cl (stereo not shown) [MMV676468] | -0.27 | -0.82 | – | – | – | – |
| CC(C)(C)c1ccc(N[C@@H]2CCCC[C@H]2NC(=O)c2ccco2)cc1 [MMV675969] | 1.02 | -2.49 | – | – | – | – |
